Source: patent publication US20260158136A1, “MEDICAMENT FOR TREATMENT AND/OR PREVENTION OF CANCER” (TORAY INDUSTRIES, INC., priority 2022, published 2026)

Legend:
Format in all cases: cell-based
[1] = tested on: human colon cancer cell line (HCT116); assay: THP-1-mediated phagocytic activity against HCT116, anti-CAPRIN-1 antibody with palbociclib or abemaciclib (Example 2A); conditions: Student's t test, p<0.001; with anti-CAPRIN-1 antibody; FIG. 1
Method: (§1) Specifically, in CDK inhibitor combination test group, the indicated drug used in combination was applied to human cancer cells, and then the cancer cells were cocultured with human monocytic cells (THP-1) in the presence of the anti-CAPRIN-1 antibody, and the antibody-mediated phagocytic activity against the cancer cells by THP-1 was evaluated.
(§2) The human-derived cancer cell used was a colon cancer cell line HCT116. On a 6-well plate, the human-derived cancer cells were cultured for 2 days in the presence of palbociclib (10 μM) or abemaciclib (1 μM) for the CDK inhibitor combination test group. As a control, a test group without a drug used in combination, in which only the anti-CAPRIN-1 antibody was added, was established. […]
(§3) Each cancer cell line after the culture was dissociated with TrypLE Express (Thermo), and the cancer cells were stained by the addition of calcein-AM at a final concentration of 0.04 μg/mL and incubation at 37° C. for 10 minutes. […] Further, dead cells were stained with propidium iodide (PI) (final concentration: 0.1 μg/mL), followed by the measurement of fluorescence from the cells by flow cytometry. […] Thus, the phagocytic activity in this evaluation system was calculated as the ratio (%) of APC-positive/calcein-AM-positive cells to the whole calcein-AM-positive population.

[2] = tested on: human colon cancer cell line (HCT116); assay: THP-1-mediated phagocytic activity against HCT116, anti-CAPRIN-1 antibody with palbociclib or abemaciclib, control IgG included (Example 2B); conditions: Dunnett's test, p<0.001; anti-CAPRIN-1 antibody treatment group; FIG. 2
Method: as §1, with “evaluated. A human IgG antibody (Sigma-Aldrich Co. LLC, Cat. No.: 4506) was used as a control antibody.” for “evaluated.”
as §2, with “of the” for “of”, “([…])” for “(10 μM)”, “(1 μM),” for “(1 μM)”
as §3

[3] = tested on: human colon cancer cell line (HCT116); assay: THP-1-mediated phagocytic activity against HCT116, anti-CAPRIN-1 antibody with palbociclib or cisplatin (Example 5); conditions: for phagocytic activity of combination test group compared with test group without a drug used in combination: Dunnett's test, with anti-CAPRIN-1 antibody, FIG. 5; for phagocytic activity against cancer cells: drug combination test group: HCT116 cultured 2 days with palbociclib 10 μM or cisplatin 1 μM, then anti-CAPRIN-1 humanized antibody #1 1 μg/mL + THP-1, 1 h
Method: as §1, with “each” for “CDK”
The human-derived cancer cell used was a colon cancer cell line HCT116. On a 6-well plate, the human-derived cancer cells were cultured for 2 days in the presence of the respective drugs used in combination, for the palbociclib combination test group. Specifically, palbociclib was added at a concentration of 10 μM and cisplatin at a concentration of 1 μM to HCT 116. As a control, a test group without a drug used in combination, in which only the anti-CAPRIN-1 antibody was added, was established. In the control group, the cancer cells were cultured for 2 days without addition of the drug used in combination beforehand.
(§4) Each cancer cell line after the culture was dissociated with TrypLE Express (Thermo), and the cancer cells were stained by the addition of calcein-AM at a final concentration of 0.04 μg/mL and incubation at 37° C. for 10 minutes. Next, the cells were dispensed at 1×10^4 cancer cells per well to a 96-well plate, and the anti-CAPRIN-1 antibody at a final concentration of 1 μg/mL and 10×10^5 THP-1 cells were added to each well, followed by culture at 37° C. for 1 hour under a condition of 5% CO2. Then, the cells were washed with PBS (phosphate buffer solution) containing 1% FBS (fetal bovine serum), and the human monocytic cells were stained through a reaction with an APC (allophycocyanin)-labeled anti-human CD45 antibody (final concentration: 0.25 μg/mL). Further, dead cells were stained with propidium iodide (PI) (final concentration: 0.1 μg/mL), followed by the measurement of fluorescence from the cells by flow cytometry. PI-positive dead cells were excluded from analysis. The human monocytic cells THP-1 recognize an antibody bound onto cancer cells and phagocytize the cancer cells. At that time, if the cancer cells have been stained with calcein-AM, the monocytic cells ingesting the cancer cells by phagocytosis also become positive to calcein-AM. Thus, the phagocytic activity in this evaluation system was calculated as the ratio (%) of APC-positive/calcein-AM-positive cells to the whole calcein-AM-positive population.

[4] = tested on: human colon cancer cell line (HCT116); assay: THP-1-mediated phagocytic activity against HCT116, anti-CAPRIN-1 antibody with ribociclib (Example 3)
Method: as §1, with “ribociclib” for “drug used in combination”
The human-derived cancer cell used was a colon cancer cell line HCT116. On a 6-well plate, the human-derived cancer cells were cultured for 2 days in the presence of the ribociclib (30 μM), for the CDK inhibitor combination test group. As a control, a test group without a drug used in combination, in which only the anti-CAPRIN-1 antibody was added, was established. In the control group, the cancer cells were cultured for 2 days without addition of the drug used in combination beforehand.
as §4, with “5×10^3” for “1×10^4”, “1.25×10^5” for “10×10^5”, “At that time, if the cancer cells have been stained with calcein-AM, the monocytic cells ingesting the cancer cells by phagocytosis also become positive to calcein-AM.” left out

[5] = tested on: human colon cancer cell line (HCT116); assay: THP-1-mediated phagocytic activity against HCT116, anti-CAPRIN-1, anti-CD20 or anti-HER-2 antibody alone or with palbociclib (Example 4)
Method: The human-derived cancer cell used was a colon cancer cell line HCT116. On a 6-well plate, the human-derived cancer cells were cultured for 2 days in the presence of the respective drugs used in combination for the palbociclib combination test group. Specifically, palbociclib was added at a concentration of 10 μM to HCT 116. […] In the control group, the cancer cells were cultured for 2 days without addition of palbociclib beforehand.
as §4, with “Next, the cells were dispensed at 1×10^4 cancer cells per well to a 96-well plate, and the anti-CAPRIN-1 antibody at a final concentration of 1 μg/mL and 10×10^5 THP-1 cells were added to each well, followed by culture at 37° C. for 1 hour under a condition of 5% CO2.” left out, “[…]).” for “μg/mL).”

Compound	phagocytic activity of combination test group compared with test group without a drug used in combination [1]	phagocytic activity of combination test group compared with test group without a drug used in combination [2]	phagocytic activity of combination test group compared with test group without a drug used in combination [3]	phagocytic activity against cancer cells [3] [%]	also measured
CCN1CCN(Cc2ccc(Nc3ncc(F)c(-c4cc(F)c5nc(C)n(C(C)C)c5c4)n3)nc2)CC1 [abemaciclib, N-[5-[(4-ethylpiperazin-1-yl)methyl]pyridin-2-yl]-5-fluoro-4-(7-fluoro-2-methyl-3-propan-2-ylbenzimidazol-5-yl)pyrimidin-2-amine]	significantly higher	significantly higher	–	–	–
N.N.[Cl][Pt][Cl] [cisplatin]	–	–	no significant change	≤ 23	–
CC(=O)c1c(C)c2cnc(Nc3ccc(N4CCNCC4)cn3)nc2n(C2CCCC2)c1=O [palbociclib, 6-acetyl-8-cyclopentyl-5-methyl-2-[(5-piperazin-1-ylpyridin-2-yl)amino]pyrido[2,3-d]pyrimidin-7-one]	significantly higher	significantly higher	significantly higher	≥ 54	–
CN(C)C(=O)c1cc2cnc(Nc3ccc(N4CCNCC4)cn3)nc2n1C1CCCC1 [ribociclib, 7-cyclopentyl-N,N-dimethyl-2-[(5-piperazin-1-ylpyridin-2-yl)amino]pyrrolo[2,3-d]pyrimidine-6-carboxamide]	–	–	–	–	phagocytic activity of combination test group compared with test group without a drug used in combination ([4]; Dunnett's test, p<0.001, with anti-CAPRIN-1 antibody, FIG. 3): significantly higher; increase of antitumor effect of the anti-CAPRIN-1 antibody by the combination ([4]; combination versus antibody alone, HCT116): ≥ 2.5 times; phagocytic activity against cancer cells ([4]; ribociclib combination test group: HCT116 cultured 2 days with ribociclib 30 μM, then anti-CAPRIN-1 humanized antibody #1 1 μg/mL + THP-1, 1 h): ≥ 58%
anti-CD20 antibody: anti-CD20 antibody ("Rituxan") purchased from Chugai Pharmaceutical Co., Ltd.	–	–	–	–	effect of palbociclib combination on phagocytic activity compared with antibody without a drug used in combination ([5]; palbociclib 10 μM, Dunnett's test, FIG. 4): not remarkably increased; phagocytic activity against cancer cells ([5]; palbociclib combination test group: HCT116 cultured 2 days with palbociclib 10 μM, then antibody at final concentration 1 μg/mL + THP-1, 1 h): ≤ 11%; phagocytic activity against cancer cells ([5]; test group without a drug used in combination: antibody only, 1 μg/mL + THP-1, 1 h): ≤ 7%
